In patent publication US9682060B2, “Small molecules that induce intrinsic pathway apoptosis” (The Board of Trustees of the University of Illinois, priority 2015, dated 2017):

What was measured:
[1] = tested on: B16-F10 melanoma; assay: Syngeneic subcutaneous tumor model; type: in vivo, C57BL/6 mice; conditions: 20 mg/kg IP once daily for 3 days
Experimental: (§1) All animal studies were performed with prior approval by the University of Illinois at Urbana-Champaign IACUC committee. […]. Seven days (for B16-F10) and six days (for 4T1) after inoculation, the mice were randomized based upon tumor size with 7 mice per group. Vehicle or compound was administered intraperitoneally as a corn oil DMSO suspension (300 μL of 10% DMSO in trans fat-free corn oil, 20 mg/kg) once daily for 3 consecutive days for B16-F10 and 4 consecutive days for 4T1 models. Tumor measurements were performed every other day using a caliper and tumor volume was calculated using the equation (0.5×l×w^2).

[2] = tested on: U-937 cells; assay: Cell morphology by light, scanning electron and transmission electron microscopy; type: cell-based, Human; conditions: 10 μM
Experimental: Cell Morphology by Light Microscopy.
Phase contrast images of U-937 cells treated with 10 μM Raptinal were taken with an Olympus DP-21 microscope digital camera. The cells were kept warm between images by returning the plate to the 37° C. incubator.
Scanning Electron Microscopy.
U-937 cells (4×10^6 cells in 8 mL 0.45 micron-filtered cell culture media) were treated with 1% DMSO) or 10 μM Raptinal in 10 cm culture dishes for 60 minutes. The cells were centrifuged (250×g, 5 min) and the media aspirated. Ice-cold Karnovsky's fixative (1 mL of 0.45 micron filtered) was added to the cell pellet which was resuspended by gently agitation. The cells were fixed overnight at 4° C. and submitted for scanning electron microscopy (SEM) sample processing. The cells were stained with OsO4, placed on filter paper and dehydrated. After mounting, the cells were coated with Pd/Au and scanning electron microscopy was performed.
Transmission Electron Microscopy.
U-937 cells (4 mL of 5×10^5 cells/ml) were treated with DMSO or 10 μM of Raptinal for 5, 30, and 60 minutes. The cells were centrifuged 400×g for 5 min and the media aspirated. The cells were fixed by the addition of Karnovsky's fixing solution (0.5 mL) and placed in a 4° C. fridge overnight. The next day, the cells were microwave fixed, stained with 2% OsO4, washed with 3% KCN and enbloc stained with uranyl acetate. The samples were dehydrated with acetonitrile and ethanol, suspended in pure epoxy, and embedded overnight at 85° C. The embedded samples were cut into thick and then thin sections and these were mounted and viewed.

[3] = tested on: 4T1 breast cancer; assay: Syngeneic subcutaneous tumor model; type: in vivo, BALB/c mice; conditions: 4T1 model; 20 mg/kg IP once daily for 4 days
Experimental: as §1

[4] = tested on: zebrafish embryos; assay: Apoptosis in zebrafish (secretory annexin V-YFP); type: in vivo; conditions: transgenic embryos 24 hours post fertilization; 10 μM for 1.5 hours
Experimental: Zebrafish experiments were performed as described (van Ham et al., 2010). TuAB zebrafish embryos were used for all experiments and were incubated at 28° C. in HEPES-buffered E3 zebrafish medium (pH 7.2) in the dark. Chemical treatments (10 μM Raptinal or vehicle, 1% v/v final DMSO) were performed in multi-well plates in buffered E3 medium. Images were taken using an AxioCam MRc camera and AxioVision 4.8 software (Zeiss). To quantify apoptosis, the number of secA5-YFP+ apoptotic cells was counted manually in embryos using a fluorescence dissection stereomicroscope (Discovery V8; Zeiss, Germany).

[5] = Pharmacokinetic profiling in mice; type: in vivo, C57BL/6 mice; conditions: 37.5 mg/kg intravenously
Experimental: Pharmacokinetics and Toxicity Profiling in Mice.
All animal studies were performed with prior approval by the University of Illinois at Urbana-Champaign IACUC committee. Eight week old female C57BL/6 mice were used for all pharmacokinetic and toxicity experiments. […]. For toxicity assessment, Raptinal was administered intravenously as a single-dose injection across a dose range of 15-60 mg/kg, and mice were sacrificed 7 days post-injection for evidence of hematologic toxicity (n=3 mice/group).

[6] = tested on: caspase-3/-7 activity in MIA PaCa-2 cells; assay: Whole cell caspase activity assay (Ac-DEVD-AFC); type: cell-based, Human; conditions: transfected MIA PaCa-2 cells; 10 μM for 1 hour
Experimental: Whole Cell Caspase Activity Assay.
The caspase activity assay was conducted in 96-well plates using transfected cells (see Example 3 for transfection protocol). Transfected cells were treated with 10 μM Raptinal for 1 hour, which corresponded to 40% of maximal caspase-3/-7 activity achievable by Raptinal. After treatment, the media was replaced with PBS (150 μL) and 50 μL of freshly made 4× caspase assay buffer (containing 20 μM Ac-DEVD-AFC) (Stennicke and Salvesen, 1997). After one hour incubation at room temperature (^˜22° C.) in the dark, the fluorescence of cleaved AFC was read on a spectrofluorometer (Ex: 380 nm, Em: 500 nm). The results were expressed as the relative caspase-3/-7 activity and normalized by designating the vehicle (0.5% DMSO) as 0% activity and Raptinal treatment as 100% activity.

[7] = in vitro; conditions: human, U-937 cells
[8] = tested on: U-937 cells; assay: Annexin V/PI cell viability analysis; conditions: U-937 cells; 10 μM; time course AV/PI, based on data in FIG. 1F
[9] = tested on: HL-60 cells; assay: High-throughput cell death screen (MTS); type: cell-based, human; conditions: 1 μM, 24 hours
Experimental: High-Throughput Cell Death Screen.
HL-60 cells were plated into 384 well plates (50 μL of 2×10^6 cells/mL per well) in RPMI cell culture media. Library compounds were transferred using a 384-pin transfer apparatus (V & P Scientific, San Diego) which transferred 0.1 μL from 10 mM DMSO stock solutions to achieve a final concentration of 20 μM. Controls containing DMSO only and 10 μM etoposide were used to serve as live and dead controls respectively. The cells were incubated for 24 hours.

[10] = tested on: HFF-1; assay: Raptinal toxicity in various cell lines, 24 hour IC50; type: cell-based; conditions: HFF-1 (Human Foreskin Fibroblast); 24 hour incubation; mean ± SD

In the case of O=CC1(C2(C=O)c3ccccc3-c3ccccc32)c2ccccc2-c2ccccc21 [Raptinal, [9,9′]bifluorenyl-9,9′-dicarbaldehyde], the “retardation of tumor mass relative to controls” value [1] is reported as 60%, the “retardation of tumor volume relative to controls” value [1] is reported as 60% and the “mitochondrial morphology (transmission electron microscopy)” value ([2]; after 5 minutes) is reported as “substantial mitochondrial swelling”. The blebbing ([2]; at 30 min) was “modest”, the blebbing ([2]; at 60 min) was “extensive” and the growth inhibition [3] was 50%. It also gave an apoptotic cells [4] of 80 cells per fish, a peak plasma concentration [5] of 134.5 ± 2.2 µM and a peak plasma concentration ([5]; mean ± SD, n=3) of 54.4 ± 0.9 µg/mL. The half-life ([5]; female, C57BL/6, mouse, in vivo, iv, mean ± SD, n=3, read-out: elimination half-life) was 1.53 ± 0.0967 h, the “caspase-3/-7 activity as share of maximal activity achievable by Raptinal” value [6] was 40% and the cytotoxicity at 2 h, 10 µM [7] was roughly 80%. For the same compound, the “Time to 50% death” value [8] was 1.5 h, the “cell death in retest of screen hits” value [9] was “quantitative cell death” and the IC50 [10] was 3.3 ± 0.2 µM.
